The values that follow are results of earlier work, collected in patent US6660719B2, “Inhibiting T-Cell proliferation” (BioCryst Pharmaceuticals Inc., priority 2001, dated 2003).

The structures appear in SMILES notation. Read-outs that look alike come from different tables or passages of the source.

The test system of data set [1] is peripheral blood lymphocytes. The note with it: given to rats with 2′-deoxyguanosine.
Data set [2] has as its system peripheral blood lymphocytes. The note with it: given to dogs with 2′-deoxyguanosine.
The subject of another data set is T-cells. The note with it: rats; given with 2′-deoxyguanosine.
Another data set concerns CCRF-CEM cells. The note with it: given with 2′-deoxyguanosine.
The subject of a further data set is Molt-4 cells. As to conditions: given with 2′-deoxyguanosine.
For data set [3], the system named is peripheral blood lymphocytes. The note with it: 2′-deoxyguanosine alone, without PNP inhibition; species not given.

Regarding `Nc1nc2c(nc(N)n2[C@@H]2O[C@H](CO)[C@@H](O)[C@H]2O)c(=O)[nH]1` [8-Aminoguanosine], the peripheral blood lymphocytes entry in data set [1] and in data set [2] was “profound fall” in each case. Further, the “levels of 2′-deoxyguanosine triphosphate (dGTP) in T-cells” value in the data set on T-cells is reported as “increased levels”.
Take `Nc1nc2nc(N)[nH]c2c(=O)[nH]1` [8-Aminoguanine]: the “proliferation of human T-cells in cultures” value in the data set with CCRF-CEM cells and in the data set with Molt-4 cells was “inhibits the proliferation” each time.
For `Nc1nc2c(ncn2[C@H]2C[C@H](O)[C@@H](CO)O2)c(=O)[nH]1` [2′-deoxyguanosine], in data set [3], the “cell counts (lymphopenia)” value is “did not significantly decrease cell counts”.
